# Test results published in ChEMBL document CHEMBL3507680, “University of Dundee, Gates Library screen for HepG2 cell viability”.
# Assay: Human HepG2 cell viability assay in 384 well format
# Assay type: toxicity, cell-based
# Set-up: dose 125 nL, time 70.5 hour; cytotoxicity at 70.5 h: concentration not given beside the values
# Conditions: HepG2 cells, read-out: Inhibition
row,SMILES,cytotoxicity at 70.5 h [%]
1,CCc1ccc(O)c(C(=O)N2CCCN(CC(=O)N(CC)CC)CC2)c1,-0.346
2,CCCn1nc2c(cc1=O)CN(Cc1nc(-c3ccoc3)no1)CC2,-2.82
3,Cc1cc(CSCc2ccccn2)on1,-1.54
4,CCc1noc(C(C)N(C)Cc2ccc(OC)c(OC)c2)n1 (stereo not given),1.83
5,COCc1nc(C(=O)NS(=O)(=O)c2ccc(C)c(C)c2)cs1,25.8
6,CSCC(C)(O)CNC(=O)Nc1ccc(C)cc1Br (stereo not given),-3.05
7,Cn1ccc(C(=O)Nc2nnc(-c3ccccn3)[nH]2)cc1=O,-22.2
8,CC(C)c1nc2cc(NC(=O)Cn3ccccc3=O)ccc2o1,-3.88
9,COc1ccc(Br)cc1CN(C)C(C)c1nc(C(C)C)no1 (stereo not given),-19.6
10,O=C(NC1CCN(c2cccc(OC(F)(F)F)c2)C1=O)C1CC1 (stereo not given),0.481
11,O=C(CS(=O)(=O)C1CCCC1)NC1CCc2nccn2C1 (stereo not given),-9.54
12,Cc1cn2c(n1)CCC(NC(=O)CNS(C)(=O)=O)C2 (stereo not given),-4.61
13,CCCC(NC(=O)c1occc1C)c1nnn[nH]1 (stereo not given),-1.34
14,Cc1cccc(NC(=O)[C@@H]2CCCN2Cc2nnc(C(C)C)n2C)n1,-1.83
15,O=C(CCN1CCCC1c1cccc2c1OCCO2)N1CCOCC1 (stereo not given),-2.76
16,O=C(CCc1ncc(-c2ccc(F)cc2)o1)NCCN1CCOCC1,-3.91
17,O=C(C1CC(=O)N(c2ccccc2Br)C1)N1CCN(CC(F)(F)F)CC1 (stereo not given),-8.32
18,CCC(C)(C)NCc1nc(C(C)(C)NC(=O)OC(C)(C)C)no1,-10.2
19,O=C(NCCNS(=O)(=O)c1cc(F)cc(F)c1)c1ccoc1,-8.89
20,COc1ccccc1NC(=O)Cc1c(C)nc2c(c1C)c(=O)[nH]n2C,-3.59
21,O=C(Nc1ccc(OCc2cccc(F)c2)c(F)c1)C1COCCO1 (stereo not given),-3.19
22,Cc1cc(C)cc(NC(=O)Cc2c(C)nc3c(c2C)c(=O)[nH]n3C)c1,-0.0448

row,SMILES,cytotoxicity at 70.5 h [%]
1,CCNC(=O)NC1CCN(c2ccc(S(=O)(=O)CC)cc2)CC1,0.434
2,COc1ncccc1NC(=O)N1CCC(c2ccc(O)cc2)CC1,-3.42
3,COc1ccc(CNC(=O)NC2CCN(c3ccccc3)C2=O)cc1 (stereo not given),-4.11
4,Cc1cnn(CC2CCCN2CC(=O)Nc2nncs2)c1 (stereo not given),-5.64
5,CCc1nc(NS(=O)(=O)c2cc(C)cc(F)c2)no1,-0.337
6,CCS(=O)(=O)NCc1cc(Br)c(OC)c(OC)c1,-8.56
7,Cc1ccccc1C(O)CNS(=O)(=O)Cc1cccc(C#N)c1 (stereo not given),-3.55
8,CCOCc1cccc(NC(=O)C2COCCO2)c1 (stereo not given),-7.73
9,O=C(NCCc1ccc(F)cc1)NC1CCCc2c1cnn2CCO (stereo not given),-6.55
10,CN(Cc1ccccc1)C(=O)CCNS(=O)(=O)c1cccnc1,11.8
11,COc1ccc(OCC(O)CN2CCN(c3nccs3)CC2)cc1 (stereo not given),-2.04
12,OC(COc1ccccc1)CN1CCN(c2nccs2)CC1 (stereo not given),0.888
13,Cc1ccc(CN(C)C(=O)CCNS(=O)(=O)c2cccnc2)cc1,-7.21
14,Cc1nc(CCNC(=O)NC2CCCc3c2cnn3CCO)cs1 (stereo not given),-9.35
15,O=C(NCCC1=CCCCC1)NC1CCCc2c1cnn2CCO (stereo not given),-10.1
16,CCCN1CCN(C(=O)c2cnn(-c3ccccc3F)c2)CC1,8.36
17,O=C(NCCN1CCOCC1)c1cnc(Cc2ccc(F)cc2)s1,-8.24
18,Cc1cc(C)cc(OCC(O)CN2CCN(c3nccs3)CC2)c1 (stereo not given),8.55
19,COC(=O)[C@H](C)NC(=O)c1cnc(Cc2ccc(F)cc2)s1,-0.425
20,COC(=O)C(C)(C)NC(=O)c1cnc(Cc2ccc(F)cc2)s1,-2.02
21,CCNC(=O)NCCc1csc(N2CCCC2)n1,-9.41
22,Cc1sc(C(=O)O)cc1S(=O)(=O)Nc1c(F)cccc1-n1cccn1,18.5

row,SMILES,cytotoxicity at 70.5 h [%]
1,Cc1nn(C)c(C)c1C1COCCN1c1ncncc1Br (stereo not given),-4.79
2,CCN(CC1CN(CC2CCC2)CCO1)c1cccnn1 (stereo not given),-6.19
3,COc1ccc(C(=O)N2CCOCC2c2ccc(C)o2)cc1 (stereo not given),-9.97
4,Cc1ccc(C2COCCN2C(=O)c2ccc(F)c(F)c2)o1 (stereo not given),-0.394
5,Cc1cc(C)n(-c2ccc(N3CCC4(CC3)OCC(C)O4)nc2)n1 (stereo not given),-8.82
6,OC(CNc1cncc(OCc2ccccc2)n1)c1ccco1 (stereo not given),-5.66
7,CC(C)(C)c1cc(NC(=O)C2COCCO2)n(-c2ccccn2)n1 (stereo not given),-0.749
8,NC(=O)[C@@H]1Cc2ccccc2CN1CCc1cccs1,-10
9,CNC(=O)C1Cc2ccccc2CN1CCc1cccs1 (stereo not given),-8.64
10,CC(C)(C)c1cc(NC(=O)C2CCCO2)n(-c2ccccn2)n1 (stereo not given),-2.77
11,Cc1noc(Cl)c1CC(=O)NCCOc1ccc(F)cc1F,-0.975
12,CN(c1cccc2ccccc12)S(=O)(=O)c1cc(C(=O)O)cs1,-0.615
13,CCC(=O)NCC(=O)NCC(C)(C)c1cccc(Br)c1,-5.47
14,Cc1noc(C)c1CNC(=O)NCCOc1ccc(F)cc1F,-3.02
15,Cc1cc(C)n(-c2ccc(N3CCC(O)CC3)nc2)n1,-1.96
16,CC(C)NC(=O)CN(C)C1CCN(c2ccc(Cl)cn2)CC1,-7
17,CCOc1ccc(CN(C)C2CCN(c3cc(C)nn3C)C2=O)cc1 (stereo not given),19.7
18,CC(C)OCCCNC(=O)Nc1cccc2ncccc12,-2.69
19,CC(C)(C)Cc1noc2ncc(C(=O)N3CCCSCC3)cc12,11.1
20,Cc1cc(N2CCC(N(C)Cc3cccnc3)C2=O)n(C)n1 (stereo not given),13.5
21,Cn1cc(C(=O)Nc2cccc(F)c2)ccc1=O,0.823
22,O=C(NCCNc1ccc(C(F)(F)F)cn1)c1ccoc1,-8.13

row,SMILES,cytotoxicity at 70.5 h [%]
1,Cc1cc(C)cc(C2(C(=O)NCC(C)CN3CCCC3=O)CC2)c1 (stereo not given),-8.76
2,Cc1ccc(C(=O)N2CCCCC2CNC(N)=O)s1 (stereo not given),-6.25
3,Cc1cccc(OCC(=O)N(C)C2CCN(CC3CCOC3)CC2)c1 (stereo not given),-9.11
4,CCc1cc(NC(=O)c2cccc(OCC(F)(F)F)n2)[nH]n1,-2.9
5,COc1cccc(C(O)Cn2ncc3ncccc3c2=O)c1 (stereo not given),-10.1
6,CN1CCN(S(C)(=O)=O)c2cc(F)ccc21,-14.8
7,CC(C#N)CNS(=O)(=O)c1ccc(Br)c(F)c1 (stereo not given),-8.29
8,Cn1cc(C(=O)Nc2cccc(Oc3ccncc3)c2)ccc1=O,-4.83
9,Cc1ccc(S(=O)(=O)NCC(C)C#N)cc1Br (stereo not given),-4.59
10,CC(C)N1C(=O)CC(NC(=O)c2cc(Cl)sc2Cl)C1=O (stereo not given),-8.84
11,Cc1cscc1C(=O)NC1CC(=O)N(C(C)C)C1=O (stereo not given),-4.89
12,CN(C)c1ncncc1NC(=O)Cc1c[nH]c2ccc(F)cc12,-2.95
13,COc1ncnc(N(C)C)c1NC(=O)Cc1cc(F)ccc1F,-5.92
14,CCc1nnc2ccc(NCC3(N4CCCCC4)CCOCC3)nn12,-7.09
15,CC1C(=O)Nc2cccnc2N1S(=O)(=O)c1ccc(C#N)c(Cl)c1 (stereo not given),-6.2
16,CCN(Cc1ccoc1)C(=O)c1ccc(C)c(S(N)(=O)=O)c1,-10.2
17,Cc1cc(N)nc(SC2CCCN(Cc3ccccc3)C2=O)n1 (stereo not given),-9.67
18,Cc1nn(CCO)c(C)c1CNC1CCOc2ccccc21 (stereo not given),-2.7
19,CCCC(N)CNS(=O)(=O)Cc1cccc(C#N)c1 (stereo not given),-3.64
